In ChEMBL document CHEMBL1123466, “Selective thromboxane synthetase inhibitors. 3. 1H-imidazol-1-yl-substituted benzo[b]furan-, benzo[b]thiophene-, and indole-2- and -3-carboxylic acids” (J Med Chem, 1986):

biological target: T1, Cytochrome P450 11B1, mitochondrial (Rattus norvegicus, UniProt P15393); assay: Effect on adrenal 11-beta-hydroxylase activity at 10e-4 M; No significant effect
T1 sequence (P15393 whole entry): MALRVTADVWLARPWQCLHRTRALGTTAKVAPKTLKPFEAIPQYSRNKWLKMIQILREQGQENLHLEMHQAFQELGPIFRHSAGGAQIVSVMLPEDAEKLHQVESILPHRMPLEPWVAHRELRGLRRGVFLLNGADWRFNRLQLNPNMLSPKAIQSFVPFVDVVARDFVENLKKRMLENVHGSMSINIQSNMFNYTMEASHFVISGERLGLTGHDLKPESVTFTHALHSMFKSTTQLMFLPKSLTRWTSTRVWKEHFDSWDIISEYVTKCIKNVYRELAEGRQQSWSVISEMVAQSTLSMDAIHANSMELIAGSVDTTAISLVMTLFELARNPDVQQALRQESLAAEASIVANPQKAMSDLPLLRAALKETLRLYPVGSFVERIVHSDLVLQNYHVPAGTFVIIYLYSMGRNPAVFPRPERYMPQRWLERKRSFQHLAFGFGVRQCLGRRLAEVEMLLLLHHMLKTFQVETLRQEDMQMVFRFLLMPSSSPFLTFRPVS

Effect | Structure (SMILES)
No effect | Cc1c(C(=O)O)sc2cc(Cn3ccnc3)ccc12

biological target: Prostaglandin G/H synthase (cyclooxygenase) (Ovis aries) (UniProt P05979+P79208); assay: Effect on ram seminal vesicle cyclooxygenase activity at 10e-4 M; no significant effect; assay type: tissue-based
Sequence (P05979 whole entry, looked up): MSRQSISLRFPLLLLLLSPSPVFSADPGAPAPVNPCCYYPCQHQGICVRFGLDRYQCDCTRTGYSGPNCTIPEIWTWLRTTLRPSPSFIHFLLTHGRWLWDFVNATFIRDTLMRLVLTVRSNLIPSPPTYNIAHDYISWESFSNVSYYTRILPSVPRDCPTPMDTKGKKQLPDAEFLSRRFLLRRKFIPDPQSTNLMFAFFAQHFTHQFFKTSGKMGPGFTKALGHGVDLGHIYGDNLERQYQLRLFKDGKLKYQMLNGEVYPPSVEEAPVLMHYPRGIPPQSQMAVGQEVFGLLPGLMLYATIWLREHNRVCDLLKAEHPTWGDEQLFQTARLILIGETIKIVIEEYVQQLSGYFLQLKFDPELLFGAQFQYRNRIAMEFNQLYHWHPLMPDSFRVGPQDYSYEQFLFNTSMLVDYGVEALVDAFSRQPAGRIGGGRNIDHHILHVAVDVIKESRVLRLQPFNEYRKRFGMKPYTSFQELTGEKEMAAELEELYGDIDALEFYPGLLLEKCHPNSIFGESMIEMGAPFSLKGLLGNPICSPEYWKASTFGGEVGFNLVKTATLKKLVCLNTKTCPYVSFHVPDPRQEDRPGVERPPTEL
Sequence (P79208 whole entry, looked up): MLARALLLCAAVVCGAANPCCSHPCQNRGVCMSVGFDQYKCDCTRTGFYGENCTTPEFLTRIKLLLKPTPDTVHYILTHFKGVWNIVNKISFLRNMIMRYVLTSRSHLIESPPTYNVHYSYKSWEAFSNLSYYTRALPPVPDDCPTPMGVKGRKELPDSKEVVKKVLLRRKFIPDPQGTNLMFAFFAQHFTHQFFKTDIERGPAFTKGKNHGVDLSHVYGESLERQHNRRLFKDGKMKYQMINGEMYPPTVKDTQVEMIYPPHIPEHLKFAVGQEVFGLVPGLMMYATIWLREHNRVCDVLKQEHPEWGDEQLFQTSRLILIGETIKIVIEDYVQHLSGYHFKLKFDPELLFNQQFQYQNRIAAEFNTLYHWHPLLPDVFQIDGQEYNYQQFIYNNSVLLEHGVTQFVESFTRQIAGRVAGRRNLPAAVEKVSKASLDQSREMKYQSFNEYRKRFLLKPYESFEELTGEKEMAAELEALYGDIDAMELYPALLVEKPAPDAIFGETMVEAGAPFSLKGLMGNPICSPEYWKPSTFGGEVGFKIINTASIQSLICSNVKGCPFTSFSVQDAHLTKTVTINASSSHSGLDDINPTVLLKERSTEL

Effect | Structure (SMILES)
No effect | Cc1c(C(=O)O)sc2cc(Cn3ccnc3)ccc12

system: Prostacyclin synthase (Sus scrofa); assay: Effect on porcine aorta prostacyclin (PGI-2) synthase activity at 10e-4 M; No significant effect

Effect | Structure (SMILES)
No effect | Cc1c(C(=O)O)sc2cc(Cn3ccnc3)ccc12

biological target: T2, Thromboxane-A synthase (Homo sapiens, UniProt P24557); assay: In vitro inhibition of thromboxane synthase from human platelets.
T2 sequence (P24557 whole entry): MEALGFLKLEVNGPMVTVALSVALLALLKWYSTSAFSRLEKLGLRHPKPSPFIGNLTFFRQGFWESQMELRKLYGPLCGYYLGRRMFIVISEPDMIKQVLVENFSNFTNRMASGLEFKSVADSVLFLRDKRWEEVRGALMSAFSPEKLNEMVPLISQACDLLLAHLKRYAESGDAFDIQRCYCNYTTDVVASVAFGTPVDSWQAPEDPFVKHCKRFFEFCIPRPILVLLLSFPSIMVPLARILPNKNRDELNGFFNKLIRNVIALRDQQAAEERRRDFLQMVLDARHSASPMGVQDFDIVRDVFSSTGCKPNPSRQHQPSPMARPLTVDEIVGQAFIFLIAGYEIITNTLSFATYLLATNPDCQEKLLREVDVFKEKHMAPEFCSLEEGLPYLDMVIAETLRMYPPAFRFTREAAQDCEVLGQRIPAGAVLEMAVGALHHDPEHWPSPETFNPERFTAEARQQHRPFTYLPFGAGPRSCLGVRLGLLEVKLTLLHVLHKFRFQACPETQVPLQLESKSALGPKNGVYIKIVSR

IC50 [nM] | Structure (SMILES)
420 | O=C(O)c1cc2cc(OCCn3ccnc3)ccc2s1
20 | O=C(O)c1cc2ccc(Cn3ccnc3)cc2o1
5 | O=C(O)c1cc2cc(Cn3ccnc3)ccc2[nH]1
21 | O=C(O)c1cc2cc(Cn3ccnc3)ccc2s1
52 | O=C(O)c1cc2c(O)cc(Cn3ccnc3)cc2s1
1700 | O=C(O)c1csc2ccc(Cn3ccnc3)cc12
34 | O=C(O)c1csc2c(Cn3ccnc3)cccc12
33 | O=C(O)c1cc2ccc(Cn3ccnc3)cc2[nH]1
18 | O=C(O)c1cc2ccc(Cn3ccnc3)cc2s1
29 | Cc1c(C(=O)O)sc2ccc(Cn3ccnc3)cc12
34 | O=C(O)c1cc2cc(Cn3ccnc3)ccc2o1
140 | Cc1c(C(=O)O)sc2cc(OCCn3ccnc3)ccc12
19 | O=C(O)c1csc2cc(Cn3ccnc3)ccc12
7.4 | O=C(O)c1sc2cc(Cn3ccnc3)ccc2c1Cl
5.2 | Cc1c(C(=O)O)sc2cc(Cn3ccnc3)ccc12
5 | COc1cc(Cn2ccnc2)cc2sc(C(=O)O)cc12
31 | O=C(O)COc1ccc(Cn2ccnc2)cc1
120 | O=C(O)c1cc2cccc(Cn3ccnc3)c2s1
